Assay results as given in patent US7208154B2, “Methods and compositions for the treatment of MHC-associated conditions” (Regents of the University of Michigan, priority 2002, dated 2007).

How the values were obtained:
[1] = target: T1, calreticulin (Homo sapiens, UniProt P27797); assay: Competitive inhibition of shared epitope peptide binding to calreticulin (Biacore); set-up: GST (cleaved yes); made in house; host or cells: E. coli (strain provided by Dr. Michalak)
T1 sequence (P27797 18-417): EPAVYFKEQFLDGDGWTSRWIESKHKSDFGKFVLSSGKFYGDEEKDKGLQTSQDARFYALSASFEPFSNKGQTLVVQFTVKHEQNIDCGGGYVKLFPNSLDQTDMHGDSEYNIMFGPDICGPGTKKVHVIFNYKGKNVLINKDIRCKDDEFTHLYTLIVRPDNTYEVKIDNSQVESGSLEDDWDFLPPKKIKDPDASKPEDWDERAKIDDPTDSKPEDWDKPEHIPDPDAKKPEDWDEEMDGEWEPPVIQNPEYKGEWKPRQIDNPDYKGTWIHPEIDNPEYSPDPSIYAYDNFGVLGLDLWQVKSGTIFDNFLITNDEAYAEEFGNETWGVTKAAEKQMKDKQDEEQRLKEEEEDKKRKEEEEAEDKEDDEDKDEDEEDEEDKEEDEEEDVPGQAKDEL
Procedure: Prior to use, biosensor chips CM5 were docked into a Biacore® 2000 and preconditioned in water at 100 μl/min by applying two consecutive 20-μl pulses of 50 mM NaOH, then 10 mM HCl, and finally 0.1% SDS. Calreticulin was immobilized on CM5 surface by standard primary amine coupling [Lofas S et al. Biosensors & Bioelectronics, 10: 813–822, (1995), Johnsson B et al. J Mol Recognit., 8: 125–131, (1995), Karlsson R et al. J. Immunol. Methods, 200:121–133. (1997)]. Immobilizations were conducted at 25° C. in HBS-EP (10 mM HEPES, pH7.4, 150 mM NaCl, 1 mM EDTA, 0.005% Surfactant P-20), with a flow of 10 μl/min. The CM5 surface was activated by 7 min injection of 200 mM EDC/50 mM NHS to prepare a high-capacity surface, with manual injection of 100 μg/ml calreticulin until 5500 RU level was approached. Then 100 μl of 1M ethanolamine was used to block remaining activated group.
Calreticulin and peptide binding were performed at 25° C. in binding buffer (10 mM HEPES, pH8.0, 50 mM KCl, 0.5 mM CaCl2, 1% Triton-X100), with a flow rate of 10 μl/min. Peptides in the analyte ranged in concentration from 25–180 μM. Binding assays were repeated at least 3 times. Kinetic analysis was performed using Kinetic separate ka/kd fitting in BIA evaluation 3.0 software.
In order to determine whether DKCLA [SEQ ID NO: 16] and shared epitope-expressing peptides compete for the same binding site on calreticulin, competitive binding studies were performed in which the calreticulin binding activity of 14-mer shared epitope-expressing peptides was determined in the presence or absence of different pentapeptides. […] Thus, a Q70D substitution produces a shared epitope-antagonistic effect.

[2] = test system: Human fibroblastoid M1 cells; assay: NO production (fluorometric nitrate/nitrite DAN assay) in M1 cells stimulated with bead-bound peptide; type: cell-based; conditions: for Block of NO induction by shared epitope-expressing peptide 65–79*0401: then bead-bound 65–79*0401 for 1–30 min
Procedure: DKCLA [SEQ ID NO: 16] binds to calreticulin, and inhibits binding of shared epitope-expressing peptides which trigger pro-oxidative signaling (FIG. 9). In follow up experiments the functional activity of DKCLA [SEQ ID NO: 16] was determined by measuring its effect on NO production by shared epitope-expressing peptides (i.e. 65–79*0401) and a control peptide, 65–79*0402. Human fibroblastoid M1 cells were pre-incubated overnight with or without 50 µg/ml of DKCLA. Subsequently culture medium was changed to NO assay buffer (20 mM Tris, pH7.6, 100 mM NaCl, 0.1 mM EDTA), and cells were stimulated for 1–30 min with Sepharose bead-bound peptide 65–79*0401 or control peptide 65–79*0402. At different time points, cultures were collected and NO levels were measured. Briefly, supernatants were collected and spun down to remove cell debris. Nitrate in the supernatant were first transformed to nitrite by incubation with nitrate reductase for 60 min in room temperature. Then, DAN was added to yield fluorescent 2,3-naphthotriazole. Fluorescence was measured with a Perkin-Elmer Fusion™ Universal Microplate Analyzer, using a wavelength excitation of 375 nm and an emission wavelength of 415 nm.
The nitrite and nitrate assay was a modified method from fluorometric determination of nitrite [Thomas Pet al. Anal. Biochem., 214:11–16, (1993), Miles AM et al. Methods 7: 40–47, (1995)]. Cell culture medium was changed to NO assay buffer (20mM Tris, pH7.6, 100 mM NaCl, 0.1 mM EDTA) and was treated by bead bound peptides. After treatment, supernatant was spun down to remove cell debris. Nitrate in the supernatant was first transformed to nitrite by incubation with Nitrate Reductase for 60min in room temperature. Then 2,3-diaminonaphthalene (DAN) was added to yield fluorescent 2,3-naphthotriazole. Fluorescence was measured by a FUSION™ Universal Microplate Analyzer with excitation at 375 nm and emission at 415 nm.

[3] = target: T1, calreticulin; assay: Blocking of shared epitope peptide-triggered signaling (cAMP-inhibitory effect, genoprotection) in M1 cells; type: cell-based; set-up: endogenous in cells; host or cells: M1 human fibroblastoid cells; conditions: M1 cells pre-incubated or transfected
Procedure: Finally, in order to determine whether these neuroprotective peptides transduce their signaling through calreticulin, two complementing protocols were executed: i) Inhibition of peptide-calreticulin interaction using anti-calreticulin antibodies, or ii) blocking calreticulin expression with antisense oligonucleotides (as shown in FIG. 13C and FIG. 13D).
M1 cells were cultured in 6-well plate to 60–70% confluency. M1 cells were treated by 0.2 μM antisense oligonucleotide for 24 to 48 hr, using Lipofectin as a carrier. Calreticulin expression levels were determined by Western-blot and flow cytometry, using anti-calreticulin antibodies. Polyclonal rabbit anti-human calreticulin antibodies were obtained from ABR, Golden, CO.

[4] = M1 cells pre-incubated overnight with 50 µg/ml

| Block of shared epitope peptide-triggered signaling / inhibitory effect on genoprotection [3] | IC50, inhibition of 65–78*0401 binding to calreticulin ([1]; dose response analysis, FIG. 16C) | IC50, inhibition of 65–78*0404 binding to calreticulin ([1]; dose response analysis, FIG. 16D) | Substance | Inhibition of 65–79*0401 binding to calreticulin ([1]; Biacore assay, control experiment under identical conditions) | Block of NO induction by shared epitope-expressing peptide 65–79*0401 [2, 4] | Block of 65–78*0401 binding to calreticulin ([1]; 14-mer peptide 65–78*0401) | Block of 65–78*0404 binding to calreticulin ([1]; 14-mer peptide 65–78*0404) | Effect on baseline NO levels [2, 4] | Impact on NO levels with control peptide 65–79*0402 ([2]; bead-bound control peptide 65–79*0402) |
| --- | --- | --- | --- | --- | --- | --- | --- | --- | --- |
|  |  |  | Gln Lys Arg Ala Glu (QKRAE) [pentapeptide with A74E substitution] | did not inhibit 65–79*0401 binding to calreticulin | did not inhibit 65–79*0401-triggered NO production |  |  |  |  |
| prevented | low-υM range | low-υM range | DKCLA [Asp Lys Cys Leu Ala] |  | blocked NO induction | effectively and specifically blocked binding | effectively and specifically blocked binding | no measureable effect | no impact |
